This note sets out measurements from publication PMC7435657, “[^99mTc]Tc-DB1 Mimics with Different-Length PEG Spacers: Preclinical Comparison in GRPR-Positive Models” (Molecules, 2020).

Test [1] deals with human GRPR (Homo sapiens, UniProt P30550). Briefly: biochemical. The protocol:
Competition binding assays for DB7, DB13 and DB14 were performed in PC-3 cell membranes.
Competition binding experiments of DB7, […] against [^125 I][I-Tyr^4]BBN were conducted in PC-3 cell membranes. Increasing concentrations of tested peptide (10^−13–10^−5 M) were mixed with the radioligand (40,000 cpm per assay tube, at a 50 pM concentration) and the membrane homogenate in a total volume of 300 μL binding buffer (pH 7.4, 50 mM HEPES, 1% BSA, 5.5 mM MgCl2, 35 μM bacitracin). Triplicates of each concentration point were incubated for 60 min at 22 °C in an Incubator-Orbital Shaker unit (MPM Instr. SrI, Bernareggio, MI, Italy). The incubation was interrupted by adding ice-cold washing buffer (10 mM HEPES pH 7.4, 150 mM NaCl), followed by rapid filtration over glass fiber filters (Whatman GF/B, presoaked in binding buffer) on a Brandel Cell Harvester (Adi Hassel Ingenieur Büro, Munich, Germany). Filters were washed with cold washing buffer and were counted for their radioactivity content in an automated well-type gamma counter [NaI(Tl) 3″ crystal, Canberra Packard Cobra Quantum series instrument]. The 50% inhibitory concentration (IC50) values were calculated by nonlinear regression according to a one-site model applying the PRISM 6 program (Graph Pad Software, San Diego, CA, USA) and are expressed as mean ± SD of three experiments performed in triplicate.

Test [2] relates to PC-3 cells. Briefly: Radiotracer uptake (internalized + membrane bound) in PC-3 cells. Type of test: cell-based, human. To be noted: 1 h incubation at 37 °C, % of total added radioactivity, mean ± SD of 3 experiments. The protocol: The uptake of [^99mTc]Tc-DB7, [^99mTc]Tc-DB13, and [^99mTc]Tc-DB14 in PC-3 cells is compared in Figure 3. In all cases, the bulk of radioactivity was found on the membrane of PC-3 cells with only a small portion detected within the cells, consistent with a noninternalizing radioantagonist profile.
Figure 3 Specific uptake of [^99mTc]Tc-DB7 (pink bars), [^99mTc]Tc-DB13 (violet bars) and [^99mTc]Tc-DB14 (gray bars) in PC-3 cells after 1 h incubation at 37 °C (checkered bars: internalized, solid bars: membrane bound fractions); results represent the mean ± SD of 3 experiments performed in triplicate.
For internalization assays with [^99mTc]Tc-DB7, [^99mTc]Tc-DB13, and [^99mTc]Tc-DB14, PC-3 cells were seeded in six well plates (≈1 × 10^6 cells per well) 24 h before the experiment. […] Nonspecific internalization was determined by a parallel triplicate series containing 1 μM [Tyr^4]BBN. […] Sample radioactivity was measured on the gamma counter and the percentage, of specific internalized and membrane-bound fractions were calculated with Microsoft Excel (after subtracting nonspecific from overall internalized and membrane-bound counts). Results represent specific internalized ± SD of total added radioactivity per well from three experiments performed in triplicate.

What is called IC50 is the concentration that gives 50% inhibition.

Chain of human GRPR (P30550 whole entry): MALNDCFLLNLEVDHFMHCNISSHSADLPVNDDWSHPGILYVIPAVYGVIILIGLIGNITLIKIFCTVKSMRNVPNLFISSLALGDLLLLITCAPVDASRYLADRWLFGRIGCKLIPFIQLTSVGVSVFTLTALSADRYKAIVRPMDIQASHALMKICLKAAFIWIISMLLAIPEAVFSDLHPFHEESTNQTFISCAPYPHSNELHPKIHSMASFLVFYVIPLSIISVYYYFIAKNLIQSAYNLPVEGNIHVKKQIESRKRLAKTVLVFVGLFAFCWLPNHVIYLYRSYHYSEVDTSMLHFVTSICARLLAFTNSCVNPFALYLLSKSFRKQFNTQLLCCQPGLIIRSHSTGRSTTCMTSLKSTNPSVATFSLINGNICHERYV

`CCNC(=O)[C@H](CC(C)C)NC(=O)[C@H](Cc1c[nH]cn1)NC(=O)CNC(=O)[C@@H](NC(=O)[C@H](C)NC(=O)[C@H](Cc1c[nH]c2ccccc12)NC(=O)[C@H](CCC(N)=O)NC(=O)[C@@H](Cc1ccccc1)NC(=O)COCCOCCNC(=O)C(CNCCN)CNCCN)C(C)C` [DB7, [N4-PEGx-DPhe^6,Leu-NHEt^13]BBN(6-13)] came in with an IC50 in test [1] of 0.93 ± 0.01 nM.

Regarding `CCNC(=O)[C@H](CC(C)C)NC(=O)[C@H](Cc1c[nH]cn1)NC(=O)CNC(=O)[C@@H](NC(=O)[C@H](C)NC(=O)[C@H](Cc1c[nH]c2ccccc12)NC(=O)[C@H](CCC(N)=O)NC(=O)[C@@H](Cc1ccccc1)NC(=O)CCOCCOCCOCCNC(=O)C(CNCCN)CNCCN)C(C)C` [DB13, [N4-PEGx-DPhe^6,Leu-NHEt^13]BBN(6-13)], the IC50 in test [1] was found to be 1.03 ± 0.01 nM.

`CCNC(=O)[C@H](CC(C)C)NC(=O)[C@H](Cc1c[nH]cn1)NC(=O)CNC(=O)[C@@H](NC(=O)[C@H](C)NC(=O)[C@H](Cc1c[nH]c2ccccc12)NC(=O)[C@H](CCC(N)=O)NC(=O)[C@@H](Cc1ccccc1)NC(=O)CCOCCOCCOCCOCCNC(=O)C(CNCCN)CNCCN)C(C)C` [DB14, [N4-PEGx-DPhe^6,Leu-NHEt^13]BBN(6-13)]: it took 1.18 ± 0.09 nM to reach half-maximal inhibition in test [1] (IC50).

As for “[^99mTc]Tc-[N4-PEGx-DPhe^6,Leu-NHEt^13]BBN(6-13) [[^99mTc]Tc-DB7]”, in test [2], the Specific cell uptake worked out at 2.6 ± 0.5%.
